Source: US8586550B2, “Thiazole derivatives as SGLT2 inhibitors and pharmaceutical composition comprising same” (Green Cross Corporation, priority 2010, dated 2013)

Each molecule was assayed against T1, Human SGLT2 (hSGLT2) (Homo sapiens, UniProt P31639) (assay: Sodium-dependent glucose transport (14C-AMG uptake) assay in CHO cells stably expressing hSGLT2). Conditions: CHO cells expressing hSGLT2, 14C-AMG uptake, 37° C. for 2 h; single determinations; read-out: hSGLT2 Inhibitory Activity IC50.
T1 construct: expressed in transfected cells
T1 sequence (P31639 1-672): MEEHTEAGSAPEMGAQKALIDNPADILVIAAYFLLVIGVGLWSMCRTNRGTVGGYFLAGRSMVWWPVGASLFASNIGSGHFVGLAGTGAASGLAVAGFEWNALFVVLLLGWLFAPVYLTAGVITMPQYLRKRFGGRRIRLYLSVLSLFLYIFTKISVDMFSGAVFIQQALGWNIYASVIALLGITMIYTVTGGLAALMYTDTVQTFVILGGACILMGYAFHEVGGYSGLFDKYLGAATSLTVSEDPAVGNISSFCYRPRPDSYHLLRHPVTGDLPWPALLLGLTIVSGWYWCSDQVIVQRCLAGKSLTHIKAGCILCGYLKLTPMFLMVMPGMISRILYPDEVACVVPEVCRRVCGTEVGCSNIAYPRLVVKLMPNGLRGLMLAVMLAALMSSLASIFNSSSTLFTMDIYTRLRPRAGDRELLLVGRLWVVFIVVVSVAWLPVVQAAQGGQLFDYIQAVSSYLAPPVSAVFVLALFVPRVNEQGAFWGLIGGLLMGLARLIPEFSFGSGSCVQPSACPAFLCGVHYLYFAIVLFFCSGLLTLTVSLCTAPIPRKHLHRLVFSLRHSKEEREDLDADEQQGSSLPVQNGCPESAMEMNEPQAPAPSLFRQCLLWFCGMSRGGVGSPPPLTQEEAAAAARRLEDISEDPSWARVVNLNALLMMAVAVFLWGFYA
Type: cell-based
In short: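 Uptake of 14C-α-methyl-D-glucopyranoside (8 μM labeled, 1 mM unlabeled, NaCl buffer pH 7.4) measured over 2 h at 37 °C with inhibitor in hSGLT2-transfected CHO cells after 10 min choline-buffer pretreatment. Radioactivity by liquid scintillation; IC50 from nonlinear regression.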

IC50 [nM] | SMILES
180 | CCc1cnc(Cc2cn([C@@H]3O[C@H](CO)[C@@H](O)[C@H](O)[C@H]3O)c3ccccc23)s1 [Example 133, (2R,3R,4S,5S,6R)-2-(3-((5-Ethylthiazol-2-yl)methyl)-1H-indol-1-yl)-6-(hydroxymethyl)tetrahydro-2H-pyran-3,4,5-triol]
108 | CCCc1cnc(Cc2cn([C@@H]3O[C@H](CO)[C@@H](O)[C@H](O)[C@H]3O)c3ccccc23)s1 [Example 134, (2R,3S,4S,5R,6R)-2-(Hydroxymethyl)-6-(3((5-propylthiazol-2-yl)methyl)-1H-indol-1-yl)tetrahydro-2H-pyran-3,4,5-triol]
123 | CCCCc1cnc(Cc2cn([C@@H]3O[C@H](CO)[C@@H](O)[C@H](O)[C@H]3O)c3ccccc23)s1 [Example 135, (2R,3R,4S,5S,6R)-2-(3((5-Butylthiazol-2-yl)methyl)-1H-indol-1-yl)-6-(hydroxymethyl)tetrahydro-2H-pyran-3,4,5-triol]
210 | CCCCCc1cnc(Cc2cn([C@@H]3O[C@H](CO)[C@@H](O)[C@H](O)[C@H]3O)c3ccccc23)s1 [Example 136, (2R,3S,4S,5R,6R)-2-(Hydroxymethyl)-6-(3-((5-pentylthiazol-2-yl)methyl)-1H-indol-1-yl)tetrahydro-2H-pyran-3,4,5-triol]
124 | OC[C@H]1O[C@@H](c2cn(Cc3ncc(-c4ccccc4)s3)c3ccccc23)[C@H](O)[C@@H](O)[C@@H]1O [Example 137, (2R,3S,4R,5R,6S)-2-(Hydroxymethyl)-6-(1-((5-phenylthiazol-2-yl)methyl)-1H-indol-3-yl)-tetrahydro-2H-pyran-3,4,5-triol]
156 | Cc1ccc(S(=O)(=O)OC[C@H]2O[C@@H](c3ccc(Cl)c(Cc4ncc(-c5ccco5)s4)c3)[C@H](O)[C@@H](O)[C@@H]2O)cc1 [Example 138, ((2R,3S,4R,5R,6S)-6-(4-Chloro-3-((5-(furan-2-yl)thiazol-2-yl)methyl)phenyl)-3,4,5-trihydroxy-tetrahydro-2H-pyran-2-yl)methyl 4-methylbenzenesulfonate]
23.5 | COC[C@H]1O[C@@H](c2ccc(Cl)c(Cc3ncc(-c4ccco4)s3)c2)[C@H](O)[C@@H](O)[C@@H]1O [Example 139, (2S,3R,4R,5S,6R)-2-(4-Chloro-3-((5-(furan-2-yl)thiazol-2-yl)methyl)phenyl)-6-(methoxymethyl)-tetrahydro-2H-pyran-3,4,5-triol]
68.7 | CCOC[C@H]1O[C@@H](c2ccc(Cl)c(Cc3ncc(-c4ccco4)s3)c2)[C@H](O)[C@@H](O)[C@@H]1O [Example 140, (2S,3R,4R,5S,6R)-2-(4-Chloro-3-((5-(furan-2-yl)thiazol-2-yl)methyl)phenyl)-6-(ethoxymethyl)tetrahydro-2H-pyran-3,4,5-triol]
30.9 | OCCOC[C@H]1O[C@@H](c2ccc(Cl)c(Cc3ncc(-c4ccco4)s3)c2)[C@H](O)[C@@H](O)[C@@H]1O [Example 141, (2S,3R,4R,5S,6R)-2-(4-Chloro-3-((5-(furan-2-yl)thiazol-2-yl)methyl)phenyl)-6-((2-hydroxyethoxy)methyl)tetrahydro-2H-pyran-3,4,5-triol]
10.6 | O[C@@H]1[C@@H](O)[C@H](c2ccc(Cl)c(Cc3ncc(-c4ccco4)s3)c2)O[C@H](CF)[C@H]1O [Example 145, (2S,3R,4R,5S,6S)-2-(4-Chloro-3-((5-(furan-2-yl)thiazol-2-yl)methyl)phenyl)-6-(fluoromethyl)-tetrahydro-2H-pyran-3,4,5-triol]
7.01 | C[C@H]1O[C@@H](c2ccc(Cl)c(Cc3ncc(-c4ccco4)s3)c2)[C@H](O)[C@@H](O)[C@@H]1O [Example 146, (2S,3R,4S,5S,6R)-2-(4-Chloro-3-((5-(furan-2-yl)thiazol-2-yl)methyl)phenyl)-6-methyl-tetrahydro-2H-pyran-3,4,5-triol]
24 | CCOC(=O)OC[C@H]1O[C@@H](c2ccc(Cl)c(Cc3ncc(-c4ccco4)s3)c2)[C@H](O)[C@@H](O)[C@@H]1O [Example 160, ((2R,3S,4R,5R,6S)-6-(4-Chloro-3-((5-(furan-2-yl)thiazol-2-yl)methyl)phenyl)-3,4,5-trihydroxytetrahydro-2H-pyran-2-yl)methyl ethyl carbonate]
5.08 | CCCCOC(=O)OC[C@H]1O[C@@H](c2ccc(Cl)c(Cc3ncc(-c4ccco4)s3)c2)[C@H](O)[C@@H](O)[C@@H]1O [Example 161, Butyl ((2R,3S,4R,5R,6S)-6-(4-chloro-3-((5-(furan-2-yl)thiazol-2-yl)methyl)phenyl)-3,4,5-trihydroxytetrahydro-2H-pyran-2-yl)methyl carbonate]
79.9 | CC(C)(C)OC(=O)OC[C@H]1O[C@@H](c2ccc(Cl)c(Cc3ncc(-c4ccco4)s3)c2)[C@H](O)[C@@H](O)[C@@H]1O [Example 162, tert-Butyl ((2R,3S,4R,5R,6S)-6-(4-chloro-3-((5-(furan-2-yl)thiazol-2-yl)methyl)phenyl)-3,4,5-trihydroxytetrahydro-2H-pyran-2-yl)methyl carbonate]
11.4 | C=CCOC(=O)OC[C@H]1O[C@@H](c2ccc(Cl)c(Cc3ncc(-c4ccco4)s3)c2)[C@H](O)[C@@H](O)[C@@H]1O [Example 163, Allyl ((2R,3S,4R,5R,6S)-6-(4-chloro-3-((5-(furan-2-yl)thiazol-2-yl)methyl)phenyl)-3,4,5-trihydroxytetrahydro-2H-pyran-2-yl)methyl carbonate]
2.44 | O=C(OCc1ccccc1)OC[C@H]1O[C@@H](c2ccc(Cl)c(Cc3ncc(-c4ccco4)s3)c2)[C@H](O)[C@@H](O)[C@@H]1O [Example 164, Benzyl ((2R,3S,4R,5R,6S)-6-(4-chloro-3-((5-(furan-2-yl)thiazol-2-yl)methyl)phenyl)-3,4,5-trihydroxytetrahydro-2H-pyran-2-yl)methyl carbonate]
7.39 | CCOC(=O)OC[C@H]1O[C@@H](c2ccc(Cl)c(Cc3ncc(-c4ccsc4)s3)c2)[C@H](O)[C@@H](O)[C@@H]1O [Example 165, ((2R,3S,4R,5R,6S)-6-(4-Chloro-3-((5-(thiophen-3-yl)thiazol-2-yl)methyl)phenyl)-3,4,5-trihydroxytetrahydro-2H-pyran-2-yl)methyl ethyl carbonate]
5.76 | OC[C@H]1O[C@@H](c2ccc(Cl)c(Cc3cnc(-c4ccccc4)s3)c2)[C@H](O)[C@@H](O)[C@@H]1O [Example 183, (2S,3R,4R,5S,6R)-2-(4-Chloro-3-((2-phenylthiazol-5-yl)methyl)phenyl)-6-(hydroxymethyl)-tetrahydro-2H-pyran-3,4,5-triol]
1.42 | OC[C@H]1O[C@@H](c2ccc(Cl)c(Cc3cnc(-c4ccco4)s3)c2)[C@H](O)[C@@H](O)[C@@H]1O [Example 184, (2S,3R,4R,5S,6R)-2-(4-Chloro-3-((2-(furan-2-yl)thiazol-5-yl)methyl)phenyl)-6-(hydroxymethyl)tetrahydro-2H-pyran-3,4,5-triol]
76.6 | OC[C@H]1O[C@@H](c2ccc(Cl)c(Cc3cnc(-c4cc5ccccc5o4)s3)c2)[C@H](O)[C@@H](O)[C@@H]1O [Example 185, (2S,3R,4R,5S,6R)-2-(3-((2-(Benzofuran-2-yl)thiazol-5-yl)methyl)-4-chlorophenyl)-6-(hydroxymethyl)tetrahydro-2H-pyran-3,4,5-triol]
4.47 | OC[C@H]1O[C@@H](c2ccc(Cl)c(Cc3cnc(-c4ccoc4)s3)c2)[C@H](O)[C@@H](O)[C@@H]1O [Example 186, (2S,3R,4R,5S,6R)-2-(4-Chloro-3-((2-(furan-3-yl)thiazol-5-yl)methyl)phenyl)-6-(hydroxymethyl)tetrahydro-2H-pyran-3,4,5-triol]
2.79 | OC[C@H]1O[C@@H](c2ccc(Cl)c(Cc3cnc(-c4cccs4)s3)c2)[C@H](O)[C@@H](O)[C@@H]1O [Example 187, (2S,3R,4R,5S,6R)-2-(4-Chloro-3-((2-(thiophen-2-yl)thiazol-5-yl)methyl)phenyl)-6-(hydroxymethyl)tetrahydro-2H-pyran-3,4,5-triol]
10.4 | Cc1ccc(-c2ncc(Cc3cc([C@@H]4O[C@H](CO)[C@@H](O)[C@H](O)[C@H]4O)ccc3Cl)s2)s1 [Example 188, (2S,3R,4R,5S,6R)-2-(4-Chloro-3-((2-(5-methylthiophen-2-yl)thiazol-5-yl)methyl)phenyl)-6-(hydroxymethyl)tetrahydro-2H-pyran-3,4,5-triol]
8.64 | OC[C@H]1O[C@@H](c2ccc(Cl)c(Cc3cnc(-c4ccc(Cl)s4)s3)c2)[C@H](O)[C@@H](O)[C@@H]1O [Example 189, (2S,3R,4R,5S,6R)-2-(4-Chloro-3-((2-(5-chlorothiophen-2-yl)thiazol-5-yl)methyl)phenyl)-6-(hydroxymethyl)tetrahydro-2H-pyran-3,4,5-triol]
0.901 | OC[C@H]1O[C@@H](c2ccc(Cl)c(Cc3cnc(-c4ccsc4)s3)c2)[C@H](O)[C@@H](O)[C@@H]1O [Example 190, (2S,3R,4R,5S,6R)-2-(4-Chloro-3-((2-(thiophen-3-yl)thiazol-5-yl)methyl)phenyl)-6-(hydroxymethyl)tetrahydro-2H-pyran-3,4,5-triol]
